From patent US20220356174A1, “PYRIDIN-2-ONE COMPOUNDS USEFUL AS SMARCA2 ANTAGONISTS” (Epizyme, Inc., priority 2018, published 2022)
pIC50: −log10 of the molar value. Read-outs that look alike come from different tables or passages of the source.

Columns and labels:
[1] = test system: A549 cells; assay: High-throughput proliferation (HTP) assay for A549 cells (CellTiter-Glo, 7 days); assay type: cell-based; conditions: Homo sapiens, 168 h, read-out: A549 SMARCA2 IC50
Outline: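 Seven-day growth of A549 (62.5 cells/well, F12K with 10% HI-FBS, 37° C.) with compound, read by CellTiter-Glo ATP luminescence. Percent inhibition scaled between DMSO wells and 10 μM Doxorubicin wells, then fitted for EC50 and IC50.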

[2] = test system: H358 cells; assay: High-throughput proliferation (HTP) assay for H358 cells (CellTiter-Glo, 7 days); assay type: cell-based; conditions: Homo sapiens, NCI-H358, 168 h, read-out: H358 SMARCA2 IC50
Outline: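 Cells were plated at 1,000 cells/well in RPMI 1640 + 10% HI-FBS + 1% pen/strep on pre-dispensed compound and incubated 7 days at 37 °C, 5% CO2. Viability was read as ATP luminescence with CellTiter-Glo after 30 min at RT. DMSO served as 0% and 10 µM doxorubicin as 100% inhibition for EC50/IC50.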

[3] = target: FL-SMARCA4 (Homo sapiens, UniProt P51532); assay: SMARCA4 ATPase activity assay (ADP-Glo, chicken mononucleosome substrate)
[4] = target: T1, FL-SMARCA2 (full-length human SMARCA2 isoform 1) (Homo sapiens, UniProt P51531); assay: SMARCA2 ATPase activity assay (ADP-Glo, chicken mononucleosome substrate); assay type: biochemical; conditions: ATPase assay, enzyme 5 nM, ATP 250 uM, chicken mononucleosome 10 nM, 30 min preincubation
T1 construct: FLAG tag (YKDDDDK) (C); made in house; host or cells: Sf21 insect cells (baculovirus, pFastBacI)

[5] = Table 3d.1, read-out: FL-SMARCA2 IC>50
[6] = FL-SMARCA4 IC>50, Table 3c.2, ATPase assay, enzyme 5 nM, ATP 250 uM, chicken mononucleosome 10 nM, 30 min preincubation

FL-SMARCA4, sequence (P51532 whole entry, canonical isoform): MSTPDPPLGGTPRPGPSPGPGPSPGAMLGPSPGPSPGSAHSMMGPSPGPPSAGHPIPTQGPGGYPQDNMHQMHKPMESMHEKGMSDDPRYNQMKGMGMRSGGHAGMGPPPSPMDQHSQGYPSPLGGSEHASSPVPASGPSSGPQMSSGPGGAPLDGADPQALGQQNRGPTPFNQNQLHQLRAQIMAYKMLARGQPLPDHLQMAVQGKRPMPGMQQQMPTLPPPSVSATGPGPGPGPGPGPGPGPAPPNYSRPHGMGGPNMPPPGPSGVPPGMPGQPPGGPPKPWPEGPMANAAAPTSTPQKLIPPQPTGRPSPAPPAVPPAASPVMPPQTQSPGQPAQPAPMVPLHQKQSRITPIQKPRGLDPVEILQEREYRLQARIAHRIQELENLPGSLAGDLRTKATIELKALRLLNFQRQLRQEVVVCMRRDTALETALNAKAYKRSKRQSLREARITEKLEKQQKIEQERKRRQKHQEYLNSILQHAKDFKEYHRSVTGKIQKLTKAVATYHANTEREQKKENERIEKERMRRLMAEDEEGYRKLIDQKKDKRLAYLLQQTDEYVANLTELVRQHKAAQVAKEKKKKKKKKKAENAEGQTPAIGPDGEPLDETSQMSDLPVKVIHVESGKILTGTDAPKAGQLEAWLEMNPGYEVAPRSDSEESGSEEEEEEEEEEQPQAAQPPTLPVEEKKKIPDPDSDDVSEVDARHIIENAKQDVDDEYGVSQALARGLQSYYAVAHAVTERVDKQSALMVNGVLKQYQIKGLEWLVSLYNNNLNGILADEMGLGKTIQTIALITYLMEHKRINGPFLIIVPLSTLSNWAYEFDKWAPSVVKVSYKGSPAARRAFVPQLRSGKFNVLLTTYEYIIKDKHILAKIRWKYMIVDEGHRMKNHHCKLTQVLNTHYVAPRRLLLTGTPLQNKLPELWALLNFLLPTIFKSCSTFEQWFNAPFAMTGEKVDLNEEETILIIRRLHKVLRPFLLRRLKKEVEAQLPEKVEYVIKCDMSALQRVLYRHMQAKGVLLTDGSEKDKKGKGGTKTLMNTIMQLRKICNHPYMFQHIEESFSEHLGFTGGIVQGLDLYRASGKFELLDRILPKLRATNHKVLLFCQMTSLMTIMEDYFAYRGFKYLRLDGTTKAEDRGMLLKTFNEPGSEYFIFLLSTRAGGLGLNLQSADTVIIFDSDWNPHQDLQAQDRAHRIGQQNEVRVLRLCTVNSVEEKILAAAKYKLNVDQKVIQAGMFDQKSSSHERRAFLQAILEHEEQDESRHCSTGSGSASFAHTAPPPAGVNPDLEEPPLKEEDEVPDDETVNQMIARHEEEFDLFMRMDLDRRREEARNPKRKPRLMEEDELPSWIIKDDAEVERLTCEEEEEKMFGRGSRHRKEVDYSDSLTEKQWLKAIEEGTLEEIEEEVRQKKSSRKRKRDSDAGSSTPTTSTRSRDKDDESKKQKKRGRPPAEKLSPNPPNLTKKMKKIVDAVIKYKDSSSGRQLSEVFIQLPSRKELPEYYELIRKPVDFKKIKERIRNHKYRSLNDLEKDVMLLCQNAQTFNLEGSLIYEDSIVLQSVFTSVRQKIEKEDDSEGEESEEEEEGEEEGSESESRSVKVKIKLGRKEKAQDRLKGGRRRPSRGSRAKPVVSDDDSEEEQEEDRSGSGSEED
T1 sequence (P51531 with tags, fused parts or gaps): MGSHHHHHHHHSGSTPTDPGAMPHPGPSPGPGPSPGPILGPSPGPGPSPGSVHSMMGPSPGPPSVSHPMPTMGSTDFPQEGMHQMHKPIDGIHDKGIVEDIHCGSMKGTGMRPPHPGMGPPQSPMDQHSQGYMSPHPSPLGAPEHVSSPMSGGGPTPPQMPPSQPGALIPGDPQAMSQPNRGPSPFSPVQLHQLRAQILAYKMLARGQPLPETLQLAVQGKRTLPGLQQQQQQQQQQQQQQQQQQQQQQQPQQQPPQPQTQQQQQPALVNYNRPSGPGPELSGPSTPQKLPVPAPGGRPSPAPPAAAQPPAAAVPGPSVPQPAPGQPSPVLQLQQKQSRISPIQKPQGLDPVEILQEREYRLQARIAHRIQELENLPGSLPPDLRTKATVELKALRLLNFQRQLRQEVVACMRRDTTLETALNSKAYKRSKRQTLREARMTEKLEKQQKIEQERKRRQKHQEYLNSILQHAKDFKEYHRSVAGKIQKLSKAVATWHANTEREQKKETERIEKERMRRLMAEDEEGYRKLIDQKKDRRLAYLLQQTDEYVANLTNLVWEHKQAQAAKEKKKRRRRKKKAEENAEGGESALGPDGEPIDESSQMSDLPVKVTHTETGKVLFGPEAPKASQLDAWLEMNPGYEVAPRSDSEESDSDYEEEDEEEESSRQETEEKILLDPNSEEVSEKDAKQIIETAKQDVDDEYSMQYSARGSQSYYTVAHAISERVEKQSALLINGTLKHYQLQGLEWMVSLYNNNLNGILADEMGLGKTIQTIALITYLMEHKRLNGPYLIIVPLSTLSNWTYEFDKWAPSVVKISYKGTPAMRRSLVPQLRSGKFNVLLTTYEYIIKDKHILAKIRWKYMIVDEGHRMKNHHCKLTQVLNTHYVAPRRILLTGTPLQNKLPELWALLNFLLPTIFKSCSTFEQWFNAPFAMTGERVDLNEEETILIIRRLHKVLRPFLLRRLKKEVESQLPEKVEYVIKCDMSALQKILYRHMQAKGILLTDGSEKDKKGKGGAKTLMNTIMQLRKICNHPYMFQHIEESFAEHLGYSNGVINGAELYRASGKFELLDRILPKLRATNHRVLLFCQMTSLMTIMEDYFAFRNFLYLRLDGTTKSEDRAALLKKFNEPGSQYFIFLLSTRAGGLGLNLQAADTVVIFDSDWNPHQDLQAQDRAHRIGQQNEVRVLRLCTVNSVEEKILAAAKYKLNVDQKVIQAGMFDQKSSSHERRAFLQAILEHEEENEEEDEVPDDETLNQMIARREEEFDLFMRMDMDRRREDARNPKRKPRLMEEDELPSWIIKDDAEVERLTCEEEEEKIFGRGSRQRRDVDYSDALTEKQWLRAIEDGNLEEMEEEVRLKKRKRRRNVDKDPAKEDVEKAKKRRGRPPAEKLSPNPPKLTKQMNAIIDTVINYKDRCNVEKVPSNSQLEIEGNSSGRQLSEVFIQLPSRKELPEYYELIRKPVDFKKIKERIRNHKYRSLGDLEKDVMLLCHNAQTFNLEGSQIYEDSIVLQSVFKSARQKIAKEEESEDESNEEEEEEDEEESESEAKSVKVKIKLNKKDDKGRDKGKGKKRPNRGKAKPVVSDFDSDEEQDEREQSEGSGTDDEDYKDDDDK

pIC50 [1] | pIC50 [2] | pIC50 ([3]; FL-SMARCA4 IC50) | pIC50 [4, 5] | pIC50 [3, 6] | pIC50 ([4]; Table 3c.1) | SMILES
< 5.00 | < 5.00 | 5.50 | 5.97 | – | – | O=C(Nc1cc(F)c(=O)n(CC(F)F)c1)c1cc(C#CC2CNCCO2)c(Cl)s1 (stereo not shown) [Compound 109d]
5.00 | < 5.00 | 5.67 | 6.46 | – | – | O=C(Nc1cc(F)c(=O)n(CC(F)F)c1)c1cc(-c2ccco2)c(Cl)s1 [Compound 112d]
5.39 | < 5.00 | – | – | 6.96 | 7.46 | O=C(Nc1cc(F)c(=O)n(CC(F)F)c1)c1cc(C#Cc2c[nH]cn2)c(Cl)s1 [Compound 113c]
5.56 | < 5.00 | 6.43 | 6.95 | – | – | O=C(Nc1cc(F)c(=O)n(CC(F)F)c1)c1cc(C#CC2COCCO2)c(Cl)s1 (stereo not shown) [Compound 114d]
5.68 | < 5.00 | 7.00 | 7.45 | – | – | O=C(Nc1cc(F)c(=O)n(CC(F)F)c1)c1cc(C#Cc2ccc3nccn3c2)c(Cl)s1 [Compound 115d]
< 5.00 | < 5.00 | 5.65 | 6.02 | – | – | O=C(Nc1cc(F)c(=O)n(CC(F)F)c1)c1cc(C#CC2CCn3cnnc3C2)c(Cl)s1 (stereo not shown) [Compound 119d]
< 5.00 | < 5.00 | – | – | 6.62 | 7.04 | NC(=O)Cn1cc(C#Cc2cc(C(=O)Nc3cc(F)c(=O)n(CC(F)F)c3)sc2Cl)cn1 [Compound 120c]

More lines, now with the values behind:

SMILES | pIC50 [1] | pIC50 [2] | pIC50 ([3]; FL-SMARCA4 IC50) | pIC50 [4, 5] | pIC50 [3, 6] | pIC50 ([4]; Table 3c.1)
O=C(Nc1cc(F)c(=O)n(CC(F)F)c1)c1cc(C#CC2CCCN2)c(Cl)s1 (stereo not shown) [Compound 107d] | < 5.00 | < 5.00 | 5.81 | 6.24 | – | –
O=C(Nc1cc(F)c(=O)n(CC(F)F)c1)c1cc(C#CC2CCCNC2)c(Cl)s1 (stereo not shown) [Compound 108d] | < 5.00 | < 5.00 | 5.75 | 6.27 | – | –
O=C(Nc1cc(F)c(=O)n(CC(F)F)c1)c1cc(C#CC2CCN(CC(F)(F)F)C2)c(Cl)s1 (stereo not shown) [Compound 110d] | < 5.00 | < 5.00 | 5.34 | 5.83 | – | –
NC(=O)c1nc(C#Cc2cc(C(=O)Nc3cc(F)c(=O)n(CC(F)F)c3)sc2Cl)cs1 [Compound 111c] | 5.71 | < 5.00 | – | – | 7.58 | 7.98
NCCOCC#Cc1cc(C(=O)Nc2cc(F)c(=O)n(CC(F)F)c2)sc1Cl [Compound 111d] | < 5.00 | < 5.00 | 5.29 | 5.77 | – | –
CN1CC(C#Cc2cc(C(=O)Nc3cc(F)c(=O)n(CC(F)F)c3)sc2Cl)CC1=O (stereo not shown) [Compound 113d] | < 5.00 | < 5.00 | 5.54 | 6.01 | – | –
O=C1CC(C#Cc2cc(C(=O)Nc3cc(F)c(=O)n(CC(F)F)c3)sc2Cl)CN1 (stereo not shown) [Compound 116c] | 5.42 | < 5.00 | – | – | 6.26 | 6.69
O=C(Nc1cc(F)c(=O)n(CC(F)F)c1)c1cc(C#CCn2ccnc2)c(Cl)s1 [Compound 116d] | 5.05 | < 5.00 | 6.17 | 6.60 | – | –
N#Cc1nc(C#Cc2cc(C(=O)Nc3cc(F)c(=O)n(CC(F)F)c3)sc2Cl)cs1 [Compound 117c] | 5.74 | 5.83 | – | – | 8.16 | 8.28
N#Cc1cc(C(=O)Nc2cc([N+](=O)[O-])c(=O)n(CC(F)F)c2)sc1C(F)(F)F [Compound 117d] | 5.71 | 5.64 | < 4.30 | 4.65 | – | –
CN1CC(C#Cc2cc(C(=O)Nc3cc(F)c(=O)n(CC(F)F)c3)sc2Cl)CCC1=O (stereo not shown) [Compound 118d] | 5.14 | < 5.00 | 6.26 | 6.61 | – | –
O=C(Nc1cc(F)c(=O)n(CC(F)F)c1)c1cc(C#C[C@H]2CCC[C@@H](O)C2)c(Cl)s1 [Compound 120d] | 5.67 | < 5.00 | 6.70 | 7.15 | – | –
